≈ marks a conversion by molar mass, not a printed value. Calls of active or inactive are those of the source. No cut-off for these calls is given here.
Legend:
[1] = tested on: Enterococcus faecalis; assay: Antibacterial activity against Enterococcus faecalis assessed as bacterial growth inhibition incubated for 18 to 24 hrs by NCCLS based assay; format: functional; conditions: time 18-24 hrs
[2] = tested on: Staphylococcus aureus; assay: Antibacterial activity against methicillin-resistant Staphylococcus aureus infected in neutropenic Balb/c mouse model assessed as reduction in bacterial load in lungs at 15 mg/kg, iv measured after 5 days; format: functional; conditions: time 5 day
[3] = Toxicity in Wistar rat assessed as food intake at 2000 mg/kg, po measured for 14 days; format: organism-based; conditions: in vivo, 336 h, time 14 day
[4] = tested on: Staphylococcus epidermidis; assay: Antibacterial activity against methicillin-resistant Staphylococcus epidermidis ATCC 51625 assessed as bacterial growth inhibition incubated for 18 to 24 hrs by NCCLS based assay; format: functional; conditions: time 18-24 hrs
[5] = Toxicity in Wistar rat assessed as absolute uterus weight at 2000 mg/kg, po measured after 14 days (reference value: 0.87 +/- 0.06 g); format: organism-based; conditions: in vivo, 336 h, time 14 day
[6] = Toxicity in po-dosed Wistar rat measured for 14 days by H and E staining based analysis; conditions: in vivo, time 14 day
[7] = tested on: Staphylococcus aureus; assay: Drug sensitivity against Staphylococcus aureus at 1/4 times MIC measured after 4 passages; format: functional, organism-based
[8] = Toxicity in Wistar rat assessed as body weight loss at 2000 mg/kg, po measured for 14 days; format: organism-based; conditions: in vivo, 336 h, time 14 day
[9] = Toxicity in Wistar rat assessed as relative lungs weight at 2000 mg/kg, po measured after 14 days (reference value: 0.62 +/- 0.18 %); format: organism-based; conditions: in vivo, 336 h, time 14 day
[10] = Toxicity in Wistar rat assessed as physical activity at 2000 mg/kg, po measured for 48 hrs; format: organism-based; conditions: in vivo
[11] = Toxicity in Wistar rat assessed as physical activity at 2000 mg/kg, po measured for 24 hrs; format: organism-based; conditions: in vivo
[12] = Cytotoxicity against HEK293T cells assessed as cell viability incubated for 6 hrs by CCK8 assay; format: toxicity, cell-based, HEK-293T; conditions: human
[13] = Cytotoxicity against human HepG2 cells assessed as cell viability at 200 uM incubated for 6 hrs by CCK8 assay relative to control; format: toxicity, cell-based; conditions: read-out: Activity
[14] = Toxicity in Wistar rat assessed as relative liver weight at 2000 mg/kg, po measured after 14 days (reference value: 4.37 +/- 0.18 %); format: organism-based; conditions: in vivo, 336 h, time 14 day

C=C[C@]1(C)C[C@@H](OC(=O)CSc2ncnc(N(C)C)n2)[C@]2(C)[C@H](C)CC[C@]3(CCC(=O)[C@H]32)[C@@H](C)[C@@H]1O
MIC [1]: 32 µg/mL (≈ 61.9 µM) | Activity [2]: 1.82 log10CFU/ml | Activity [3]: Toxic | MIC [4]: 0.125 µg/mL (≈ 0.242 µM) | Activity [5]: 0.68 g | LD50 at 336 h [6]: > 2000 mg/kg | Activity [7]: Active | Activity [8]: Toxic | Activity [9]: 0.53% | Activity [10]: Non-Toxic | Activity [11]: Toxic | CC50 at 6 h [12]: 50.1 µM | viability at 6 h, 200 µM [13]: 60.2% | Activity [14]: 3.99%
